“And” between values parts separate entries of the source, which are not always exact repeats. Equal values may be shown once.
Key:
[1] = molecular target: T1, PpCHIL-A (Physcomitrium patens, UniProt A9T3E4); assay: Differential scanning fluorimetry (DSF) thermal shift, PpCHIL-A; format: binding, Physcomitrella patens; details: for ΔTm: read-out: maximum thermal shift (ΔTmmax); for difference of apparent Kd relative to NC: PpCHIL-A
Text: (§1) Differential scanning fluorimetry (DSF) is a sensitive and label-free method for measuring the Tm of a protein, defined as the temperature at which 50% of a protein sample is unfolded ([21]). Positive Tm changes have been used to measure binding between a CHIL protein and chalcones ([15]). To elucidate a broader scope of CHIL–chalcone interactions, DSF was used to determine the thermal shifts that occur to VvCHIL and PpCHIL-A upon binding naturally occurring chalcones containing different substitution patterns (Fig. 1).
(§2) Assays were performed using SYPRO orange dye (1:625 dilution) and 6 μM CHIL protein against dilution series of (2R/2S)-naringenin (Sigma–Aldrich), NC, 2ʹ,4,4ʹ-trihydroxychalcone (Indofine), 2,2ʹ,4ʹ-trihydroxychalcone (Indofine), and quercetin (Thermo Scientific). Reactions were run in 20 μl reaction volumes and in a buffer containing 150 mM NaCl, 25 mM Tris (pH 8.0), 2 mM DTT, and 2% DMSO. Because of low solubility, 2% DMSO was used for all reactions to enhance ligand solubility. Experiments were performed on a QuantStudio 3 Real-Time PCR and analyzed using Protein ThermalShift software (Thermo Fisher Scientific). Replicates of two to four experiments were conducted for each condition, and GraphPad Prism 9 was used to fit maximum thermal shift (ΔTmmax) and apparent Kd values.

[2] = molecular target: T2, VvCHIL (Vitis vinifera, UniProt F6HC36); assay: Differential scanning fluorimetry (DSF) thermal shift, VvCHIL; format: binding; details: for ΔTm: read-out: maximum thermal shift (ΔTmmax); for effect on protein thermostability (thermal shift): high ligand concentration
Text: as §1, §2

[3] = molecular target: HlCHIL1; parameters: method as in PMID 29760092; details: measured by DSF; ref [15]; cited from earlier work
[4] = tested on: PpCHIL–PpCHS binding; assay: Protein pull-down assay, strep-PpCHS and untagged PpCHIL-A; parameters: species or system P. patens; details: 4.3 mM ligand
Protocol: (§3) Protein pull-down assays were conducted using 1 mg of purified strep-tagged AtCHS or PpCHS and 0.3 ml StrepTactin Sepharose resin. The untagged purified VvCHIL or PpCHIL-A proteins was used as […] (0.5 mg). Binding reactions were incubated at room temperature either without ligand and 2% DMSO, or with the reported concentration of ligand and 2% DMSO. The StrepTactin resin was washed 4× with 1 ml of buffer in order to remove unbound protein prior to elution. Each wash buffer contained the reported concentration of ligand, 2% DMSO, 150 mM NaCl, 50 mM Tris (pH 8.0), and 2 mM DTT. Strep-CHS was eluted from the StrepTactin resin with 0.1 ml elution buffer, which contains 1 mM desthiobiotin, 2% DMSO, 150 mM NaCl, 50 mM Tris (pH 8.0), and 2 mM DTT. The pull-down assays were resolved using 15% acrylamide SDS-PAGE and native PAGE gels and imaged and quantified using Image Lab (Bio-Rad). About 50 mM of DTT was used in the native PAGE loading buffer.

[5] = tested on: PpCHS–PpCHIL-A L188W; assay: Protein pull-down assay, strep-PpCHS and PpCHIL-A L188W; format: binding, P. patens; details: 4.3 mM ligand
Protocol: as §3

[6] = molecular target: T3, PpCHIL-A L188W (Physcomitrium patens, UniProt A9T3E4, L188W); assay: DSF thermal shift, PpCHIL-A L188W variant; format: binding, Physcomitrella patens
Protocol: as §2

[7] = tested on: VvCHIL–AtCHS binding; assay: Protein pull-down assay, strep-AtCHS and untagged VvCHIL; parameters: species or system Vitis vinifera / A. thaliana; details: for effect on VvCHIL–AtCHS binding: increasing ligand concentrations, 2% DMSO
Protocol: as §3

[8] = molecular target: T4, VvCHIL Q141A (Vitis vinifera, UniProt F6HC36, Q141A); assay: DSF thermal shift, VvCHIL Q141A variant; format: binding
Protocol: as §2

[9] = molecular target: T5, VvCHIL W221L (Vitis vinifera, UniProt F6HC36, W221L); assay: DSF thermal shift, VvCHIL W221L variant; format: binding
Protocol: as §2

[10] = molecular target: T6, MsCHI-II (Medicago sativa, UniProt P28012); assay: Differential scanning fluorimetry (DSF) thermal shift, MsCHI-II; format: binding; details: pH 8.0, 2% DMSO, read-out: apparent Kd
T6 construct: His8 (thrombin-cleavable) (N, cleaved yes); made in house; host or cells: E. coli BL21 DE3-pRIL
T6 sequence (P28012 1-222): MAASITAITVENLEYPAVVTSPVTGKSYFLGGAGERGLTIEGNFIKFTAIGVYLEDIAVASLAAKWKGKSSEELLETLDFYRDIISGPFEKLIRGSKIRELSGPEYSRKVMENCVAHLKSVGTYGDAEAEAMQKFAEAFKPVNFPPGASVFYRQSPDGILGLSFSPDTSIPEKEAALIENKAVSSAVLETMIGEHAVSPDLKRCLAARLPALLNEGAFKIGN

[11] = molecular target: T2, VvCHIL; assay: Quercetin fluorescence enhancement assay, VvCHIL; format: binding
Protocol: (§4) Fluorescence enhancement of quercetin (Thermo Scientific) was measured in the presence of VvCHIL and PpCHIL-A. The assays were performed in a buffer containing 25 mM Tris (pH 8.0), 150 mM NaCl, and 2% dimethyl sulfoxide (DMSO), used to solubilize quercetin. Protein concentrations were varied from 4.3 to 2250 μM relative to a constant concentration of quercetin (10 μM). After a binding equilibration period of 10 min at 25 °C, changes to the relative fluorescence intensity of quercetin (excitation 485 nm and emission 545 nm) were measured using a Vector X3 multimode plate reader (PerkinElmer). Background fluorescence from identical samples not containing quercetin was subtracted, and change-in-fluorescence data were fit using GraphPad Prism 9 (GraphPad Sofware, Inc) to a single-site binding equation in order to determine equilibrium dissociation constant (Kd) values.

[12] = molecular target: T4, VvCHIL Q141A; assay: Quercetin fluorescence enhancement assay, VvCHIL Q141A; format: binding
Protocol: as §4

[13] = molecular target: T3, PpCHIL-A L188W; assay: Quercetin fluorescence enhancement assay, PpCHIL-A L188W; format: binding, Physcomitrella patens
Protocol: as §4

[14] = tested on: VvCHIL W221L; assay: Quercetin fluorescence enhancement assay, VvCHIL W221L; format: binding, Vitis vinifera; details: VvCHIL W221L, fluorescence
Protocol: as §4

[15] = molecular target: T5, VvCHIL W221L; assay: as above; format: binding
Protocol: as §4

[16] = molecular target: T1, PpCHIL-A; assay: Quercetin fluorescence enhancement assay, PpCHIL-A; format: binding, Physcomitrella patens; details: fluorescence enhancement of 10 μM quercetin, protein titrated, 25 °C, pH 8.0
Protocol: as §4

[17] = molecular target: Chalcone isomerase-like protein from Vitis vinifera (VvCHIL) (Vitis vinifera); assay: SEC; HiPrep Sephacryl S-200 high-resolution column, 1 ml/min, 200 mM NaCl, 25 mM Tris pH 8.0, 2 mM DTT; His tags removed; masses against Bio-Rad standards
[18] = DSF, 6 μM protein, pH 8.0, 2% DMSO
[19] = DSF, single-site fit, 6 μM protein, pH 8.0, 2% DMSO, read-out: apparent Kd
[20] = fluorescence enhancement of quercetin

T1 sequence (A9T3E4 entry or part of it): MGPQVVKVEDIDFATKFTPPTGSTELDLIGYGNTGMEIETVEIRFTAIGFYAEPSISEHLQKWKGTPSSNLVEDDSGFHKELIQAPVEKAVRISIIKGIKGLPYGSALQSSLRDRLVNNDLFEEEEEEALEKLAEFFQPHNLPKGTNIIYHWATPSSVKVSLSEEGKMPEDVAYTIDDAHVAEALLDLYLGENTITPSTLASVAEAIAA
T3 sequence (A9T3E4 entry or part of it L188W): as the sequence (A9T3E4 entry or part of it) above, with L188W counted along it
T4 sequence (F6HC36 entry or part of it Q141A): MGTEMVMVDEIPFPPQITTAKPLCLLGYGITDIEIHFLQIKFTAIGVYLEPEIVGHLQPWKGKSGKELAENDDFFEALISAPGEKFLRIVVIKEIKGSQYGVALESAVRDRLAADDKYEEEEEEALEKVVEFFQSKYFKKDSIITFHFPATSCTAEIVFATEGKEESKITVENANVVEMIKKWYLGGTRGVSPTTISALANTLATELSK
T2 sequence (F6HC36 entry or part of it): as the sequence (F6HC36 entry or part of it Q141A) above, with A103Q counted along it
T5 sequence (F6HC36 entry or part of it W221L): as the sequence (F6HC36 entry or part of it Q141A) above, with A103Q, W183L counted along it

fold difference of apparent Kd relative to NC (NC smaller) ([2]; VvCHIL, DSF)	Compound	ΔTm [1, 18]	Kd [1, 19]	difference of apparent Kd relative to NC ([1]; DSF)	ΔTm [2, 18]	Kd [2, 19]	Kd [1]	PpCHIL-A in the strep-PpCHS–bound fraction [4]	pull-down of PpCHIL-A L188W by PpCHS [5]	Kd [6]	increase of apparent binding affinity over wildtype PpCHIL-A ([6]; PpCHIL-A L188W, DSF)	effect on VvCHIL–AtCHS binding [7]	effect on protein thermostability (thermal shift) ([2]; VvCHIL, DSF)	other results
~11 fold	O=C(/C=C/c1ccccc1O)c1ccc(O)cc1O [2,2ʹ,4ʹ-trihydroxychalcone]	2.7 ± 0.2 °C	85 ± 23 µM	twofold greater	3.3 ± 0.7 °C	286 ± 23 µM								
approximately 5 fold	O=C(/C=C/c1ccc(O)cc1)c1ccc(O)cc1O [2ʹ,4,4ʹ-trihydroxychalcone]			does not bind with an appreciable difference			41 ± 10 µM							Kd [2]: 127 ± 51 µM
	O=C(/C=C/c1ccc(O)cc1)c1c(O)cc(O)cc1O [NC, 2ʹ,4,4ʹ,6ʹ-tetrahydroxychalcone]	1.7 ± 0.2 °C	58 ± 16 µM		3.5 ± 0.2 °C	24 ± 5 µM		strongly enriched	enhanced	18 ± 6 µM	approximately threefold	enhances binding		Kd [3]: 43 µM; ΔTmmax [3]: 6.4 °C; Kd [8]: 16 ± 2 µM; Kd [9]: 17 ± 4 µM
	O=C1C[C@@H](c2ccc(O)cc2)Oc2cc(O)cc(O)c21 [naringenin]						762 ± 39 µM	observed in the bound fractions	similarly in the presence and absence of naringenin	180 ± 81 µM	approximately fourfold	increasingly disrupted	reduced protein Tms at high naringenin concentrations	reduction of thermal stabilization relative to wildtype PpCHIL-A ([6]; PpCHIL-A L188W, DSF): approximately 2 °C; Kd [10]: 1020 µM and 1050 µM; VvCHIL band in the strep-AtCHS–bound fraction ([7]; 4.30 mM ligand): below the threshold of detection; thermal destabilization by ligand ([8]; VvCHIL Q141A, DSF): does not undergo thermal destabilization; thermal destabilization by ligand ([9]; VvCHIL W221L, DSF): does not undergo thermal destabilization
	O=c1c(O)c(-c2ccc(O)c(O)c2)oc2cc(O)cc(O)c12 [quercetin]												destabilizes	fraction of VvCHIL bound ([11]; 750 μM quercetin, based on the Kd value for VvCHIL): 0.68; Kd ([11]; fluorescence enhancement of 10 μM quercetin, protein titrated, 25 °C, pH 8.0): 347 ± 35 µM; ligand concentration that induces a negative thermal shift ([2]; VvCHIL, DSF): above 750 μM; change of binding relative to wildtype VvCHIL ([12]; fluorescence): not significantly altered; Kd [12, 20]: 403 ± 59 µM; reduction of binding affinity relative to wildtype PpCHIL-A ([13]; fluorescence): approximately twofold; Kd [13, 20]: 582 ± 282 µM; reduction of binding relative to wildtype VvCHIL [14]: approximately twofold; Kd [15]: 612 ± 167 µM; Kd [16]: 240 ± 121 µM
	Chalcone isomerase-like protein from Vitis vinifera (VvCHIL) (natural protein)													stoichiometry N [17]: 3
